Test results from patent publication US10206937B2, “Boronic acid derivatives and therapeutic uses thereof” (Qpex Biopharma, Inc., priority 2014, dated 2019).

Tested on: strains of Enterobacteriaceae producing various carbapenemases (class A, D and B; 104 strains)
Test: Antibiotics potentiation by Compound 27 (MIC; meropenem, doripenem, ertapenem, cefepime)
Format: cell-based
Settings: + 27 = with Compound 27 at fixed 4 μg/ml

SMILES: C[C@@H](O)[C@H]1C(=O)N2C(C(=O)O)=C(S[C@@H]3CN[C@H](C(=O)Nc4cccc(C(=O)O)c4)C3)[C@H](C)[C@H]12 [E]
- MIC (strain KP1081 Klebsiella pneumoniae (NDM-1, TEM-1, SHV-11, CMY-6, CTX-M-15)): Z (MIC of greater than 10 μg/mL)
- MIC (strain KP1082 Klebsiella pneumoniae (KPC-2, SHV-1)): Z (MIC of greater than 10 μg/mL)
- MIC (strain KP1083 Klebsiella pneumoniae (KPC-3, SHV-1, TEM-1)): Z (MIC of greater than 10 μg/mL)
- MIC (strain KP1084 Klebsiella pneumoniae (KPC-3, SHV-11, TEM-1)): Z (MIC of greater than 10 μg/mL)
- MIC (strain KP1086 Klebsiella pneumoniae (OXA-48, CTX-M-15, TEM, SHV)): Z (MIC of greater than 10 μg/mL)
- MIC (strain KP1087 Klebsiella pneumoniae (KPC-2, CTX-M-15, SHV-11, TEM-1)): Z (MIC of greater than 10 μg/mL)
- MIC (strain KP1088 Klebsiella pneumoniae (KPC-3, SHV-11, TEM-1)): Z (MIC of greater than 10 μg/mL)
- MIC (strain KP1089 Klebsiella pneumonias (OXA-181, CTX-M-15, TEM, SHV)): Z (MIC of greater than 10 μg/mL)
- MIC (strain KP1095 Klebsiella pneumoniae (KPC-2 TEM-1 SHV-1)): Y (MIC of 1 μg/mL to 10 μg/mL)
- MIC (strain KP1096 Klebsiella pneumoniae (KPC-2 TEM-181 SHV-11)): Z (MIC of greater than 10 μg/mL)
- MIC (strain KP1097 Klebsiella pneumonias (IMP-1)): Z (MIC of greater than 10 μg/mL)
- MIC (strain KP1098 Klebsiella pneumoniae (IMP-26)): Z (MIC of greater than 10 μg/mL)
- MIC (strain KP1104 Klebsiella pneumoniae (KPC TEM)): Z (MIC of greater than 10 μg/mL)
- MIC (strain KP1105 Klebsiella pneumoniae (KPC TEM SHV)): Z (MIC of greater than 10 μg/mL)
- MIC (strain KP1159 Klebsiella pneumoniae (SHV-1(2b); CTX-M-15; IMP-4)): Z (MIC of greater than 10 μg/mL)
- MIC (strain KP1160 Klebsiella pneumoniae (SHV-28(2be); CTX-M-15; IMP-26)): Z (MIC of greater than 10 μg/mL)
- MIC (strain KP1161 Klebsiella pneumoniae (NDM-1)): Z (MIC of greater than 10 μg/mL)
- MIC (strain KP1164 Klebsiella pneumoniae (SHV-12(2be); VIM-1)): Z (MIC of greater than 10 μg/mL)
- MIC (strain KP1165 Klebsiella pneumoniae (SHV-11(2b); CTX-M-15; VIM-27)): Z (MIC of greater than 10 μg/mL)
- MIC (strain KP1166 Klebsiella pneumoniae (SHV-5(2be); VIM-26)): Z (MIC of greater than 10 μg/mL)
- MIC (strain KP1167 Klebsiella pneumoniae (SHV-12(2be); VIM-1)): Y (MIC of 1 μg/mL to 10 μg/mL)
- MIC (strain KP1169 Klebsiella pneumoniae (SHV-11(2b); VIM-1)): Y (MIC of 1 μg/mL to 10 μg/mL)
- MIC (strain KP1170 Klebsiella pneumoniae (SHV-11(2b); CTX-M-15; NDM-1)): Z (MIC of greater than 10 μg/mL)
- MIC (strain KP1172 Klebsiella pneumoniae (SHV-31(2be); DHA-1; VIM-1)): Y (MIC of 1 μg/mL to 10 μg/mL)
- MIC (strain KP1173 Klebsiella pneumoniae (TEM-33(2br); CTX-M-15; IMP-1)): Y (MIC of 1 μg/mL to 10 μg/mL)
- MIC (strain KP1174 Klebsiella pneumoniae (CTX-M-14; IMP-1)): Z (MIC of greater than 10 μg/mL)
- MIC (strain KP1175 Klebsiella pneumoniae (SHV-OSBL(2b); VIM-1)): Z (MIC of greater than 10 μg/mL)
- MIC (strain KP1177 Klebsiella pneumoniae (SHV-OSBL(2b), TEM-OSBL(2b); CTX-M-15; NDM-1)): Z (MIC of greater than 10 μg/mL)
- MIC (strain KP1178 Klebsiella pneumoniae (SHV-OSBL(2b;) TEM-OSBL(2b); CTX-M-15; NDM-1)): Z (MIC of greater than 10 μg/mL)
- MIC (strain KP1179 Klebsiella pneumoniae (SHV-12(2be), TEM-OSBL(2b); CTX-M-15; NDM-7)): Z (MIC of greater than 10 μg/mL)
- MIC (strain KP1180 Klebsiella pneumoniae (SHV-OSBL(2b), TEM-OSBL(2b); CTX-M-15; DHA-1; IMP-26)): Y (MIC of 1 μg/mL to 10 μg/mL)
- MIC (strain KP1181 Klebsiella pneumoniae (SHV-OSBL(2b); CTX-M-15; IMP-26)): Y (MIC of 1 μg/mL to 10 μg/mL)
- MIC (strain KP1183 Klebsiella pneumoniae (SHV-OSBL(2b), TEM-OSBL(2b); CTX-M-15; NDM-1)): Z (MIC of greater than 10 μg/mL)
- MIC (strain KP1184 Klebsiella pneumoniae (SHV-OSBL(2b); IMP-1)): Y (MIC of 1 μg/mL to 10 μg/mL)
- MIC (strain KP1185 Klebsiella pneumoniae (SHV-OSBL(2b), TEM-OSBL(2b); IMP-4)): Z (MIC of greater than 10 μg/mL)
- MIC (strain KP1186 Klebsiella pneumoniae (CTX-M-15; NDM-1)): Z (MIC of greater than 10 μg/mL)
- MIC (strain KP1187 Klebsiella pneumoniae (SHV-55(2be), TEM-OSBL(2b); CTX-M-15; NDM-1)): Z (MIC of greater than 10 μg/mL)
- MIC (strain KP1188 Klebsiella pneumoniae (SHV-OSBL(2b); CTX-M-15; NDM-1)): Z (MIC of greater than 10 μg/mL)
- MIC (strain KP1189 Klebsiella pneumoniae (TEM-OSBL(2b); CTX-M-15; CTX-M-27; NDM-1)): Z (MIC of greater than 10 μg/mL)
- MIC (strain KPM1123 Klebsiella pneumoniae (KPC-2 TEM SHV)): Z (MIC of greater than 10 μg/mL)
- MIC (strain KPM1202 Klebsiella pneumoniae (KPC SHV TEM)): Z (MIC of greater than 10 μg/mL)
- MIC (strain KPM1203 Klebsiella pneumoniae (KPC SHV TEM)): Y (MIC of 1 μg/mL to 10 μg/mL)
- MIC (strain KPM1344 Klebsiella pneumoniae (VIM-1)): Y (MIC of 1 μg/mL to 10 μg/mL)
- MIC (strain KPM1345 Klebsiella pneumoniae (VIM-1 SHV)): Y (MIC of 1 μg/mL to 10 μg/mL)
- MIC (strain KPM1347 Klebsiella pneumoniae (NDM-1 SHV CTX-M-15)): Z (MIC of greater than 10 μg/mL)
- MIC (strain KX1017 Klebsiella oxytoca (KPC-2, OXA-2, SHV-30)): Z (MIC of greater than 10 μg/mL)
- MIC (strain KX1018 Klebsiella oxytoca (KPC-2, SHV-40, OXY-1)): Y (MIC of 1 μg/mL to 10 μg/mL)
- MIC (strain KX1019 Klebsiella oxytoca (KPC-2, OXA-2)): Z (MIC of greater than 10 μg/mL)
- MIC (strain PM1024 Proteus mirabilis (TEM-1(2b); CMY-16; VIM-1)): Y (MIC of 1 μg/mL to 10 μg/mL)
- MIC (strain PM1026 Proteus mirabilis (DHA-1; IMP-26)): Y (MIC of 1 μg/mL to 10 μg/mL)
- MIC (strain PM1027 Proteus mirabilis (VIM-5)): Z (MIC of greater than 10 μg/mL)
- MIC (strain SM1023 Serratia marcescens (VIM-4)): Z (MIC of greater than 10 μg/mL)
